Laboratory results reported in patent US8329739B2, “Phenylimidazole compounds” (Otsuka Pharmaceutical Factory, Inc., priority 2009, dated 2012).
Each block holds one compound with its values, some of them ahead of it.

How the values were obtained:
[1] = biological target: T1, LPL (lipoprotein lipase) (Mus musculus, UniProt P11152); test: Confirmation test of LPL activation effect in mouse skeletal muscle cells (C2C12 cells); type: cell-based; conditions: 8 hours exposure, vs control group
T1 construct: endogenous in cells; host or cells: C2C12 cells, differentiated
T1 sequence (P11152 28-474): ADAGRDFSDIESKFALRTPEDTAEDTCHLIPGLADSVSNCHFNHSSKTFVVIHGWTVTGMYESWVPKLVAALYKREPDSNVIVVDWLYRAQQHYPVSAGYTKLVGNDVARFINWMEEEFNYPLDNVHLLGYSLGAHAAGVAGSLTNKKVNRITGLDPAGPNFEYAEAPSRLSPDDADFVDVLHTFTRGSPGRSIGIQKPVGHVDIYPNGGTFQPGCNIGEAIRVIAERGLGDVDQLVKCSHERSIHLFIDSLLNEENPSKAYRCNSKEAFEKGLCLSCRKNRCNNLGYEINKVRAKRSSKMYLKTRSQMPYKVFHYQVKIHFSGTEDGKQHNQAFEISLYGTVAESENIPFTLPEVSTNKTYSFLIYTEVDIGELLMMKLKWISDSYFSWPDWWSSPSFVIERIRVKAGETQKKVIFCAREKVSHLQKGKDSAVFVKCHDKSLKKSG
Experimental: Human skeletal muscle cells (human skeletal muscle myoblasts) or mouse skeletal muscle cells (C2C12 cells) that were seeded onto plates, cultured, and differentiated were exposed to a 0.3% dimethyl sulfoxide-containing culture medium in which the compound of the present invention was dissolved (concentration: 10 μM or 30 μM). The medium was removed 8 hours after exposure, 10 mM of Tris-HCl buffer (150 mM NaCl, 10 μ/mL; containing heparin sodium) was added to the cells, and the cells were incubated at 37° C. in the presence of 5% CO2 for 10 minutes. LPL activity in the supernatant was measured using an LPL activity assay kit (made by Roar Biomedical Inc.). LPL activity was evaluated based on the increase in fluorescence intensity 10 to 70 minutes after mixing the supernatant with the LPL substrate. The mean value of the increase in fluorescence intensity of the cells exposed to a 0.3% dimethyl sulfoxide-containing culture medium […] was used as mean value of the control group. Note that the compounds of Examples 18, 19, 32, 45 and 57 were tested using human skeletal muscle cells, and other compounds were tested using mouse skeletal muscle cells. The rate of increase (%) was calculated from the measured values of LPL activity in the control group and the experimental group, according to the following formula. Rate of increase in LPL activity (%)=[(mean value of the experimental group)−(mean value of the control group)]/(mean value of the control group)×100

Compound: COc1cc(OCc2ccc(Br)cc2F)ccc1-c1c[nH]c(-c2ccsc2)n1.Cl [Example 68]
melting point: 247 to 249 °C
Rate of increase in LPL activity ([1]; amount of addition 10 μM): 10%
Rate of increase in LPL activity ([1]; amount of addition 30 μM): 289%

Compound: COc1cc(OCc2ccc(Br)cc2F)ccc1-c1c[nH]c(-c2ccccc2C(F)(F)F)n1.Cl [Example 81]
melting point: 224 to 228 °C
Rate of increase in LPL activity ([1]; amount of addition 10 μM): 32%
Rate of increase in LPL activity ([1]; amount of addition 30 μM): 89%

Compound: COc1cc(OCc2ccc(C#N)cc2)ccc1-c1c[nH]c(-c2ccc(C)cc2)n1 [Example 85]
melting point: 195 to 198 °C
Rate of increase in LPL activity ([1]; amount of addition 10 μM): 10%
Rate of increase in LPL activity ([1]; amount of addition 30 μM): 99%

Compound: COc1ccc(-c2nc(-c3ccc(OCc4ccc(Br)cc4F)cc3OC)c[nH]2)cc1.Cl [Example 86]
melting point: > 250 °C
Rate of increase in LPL activity ([1]; amount of addition 10 μM): 40%
Rate of increase in LPL activity ([1]; amount of addition 30 μM): 375%

Compound: COc1ccc(-c2nc(-c3ccc(OCc4ccc(C#N)cc4)cc3OC)c[nH]2)cc1.Cl [Example 87]
melting point: 183 to 186 °C
Rate of increase in LPL activity ([1]; amount of addition 10 μM): 23%
Rate of increase in LPL activity ([1]; amount of addition 30 μM): 144%

Compound: COc1cc(OCc2ccc(Br)cc2F)ccc1-c1c[nH]c(-c2ccc(C(C)(C)C)cc2)n1 [Example 90]
melting point: 177 to 180 °C
Rate of increase in LPL activity ([1]; amount of addition 10 μM): 18%
Rate of increase in LPL activity ([1]; amount of addition 30 μM): 130%

Compound: COc1cc(OCc2ccc(Br)cc2F)ccc1-c1c[nH]c(-c2cc(Cl)cc(Cl)c2)n1 [Example 91]
melting point: 260 to 265 °C
Rate of increase in LPL activity ([1]; amount of addition 10 μM): 28%
Rate of increase in LPL activity ([1]; amount of addition 30 μM): 95%

Compound: COC(=O)c1ccc(-c2nc(-c3ccc(OCc4ccc(Br)cc4F)cc3OC)c[nH]2)cc1 [Example 92]
melting point: 158 to 159 °C
Rate of increase in LPL activity ([1]; amount of addition 10 μM): 42%
Rate of increase in LPL activity ([1]; amount of addition 30 μM): 123%

Compound: COc1ccc(-c2nc(-c3ccc(OCc4ccc(Br)cc4F)cc3OC)c[nH]2)cc1OC.Cl [Example 93]
melting point: 255 to 256 °C
Rate of increase in LPL activity ([1]; amount of addition 10 μM): 36%
Rate of increase in LPL activity ([1]; amount of addition 30 μM): 174%

Compound: COc1cc(OCc2ccc(Br)cc2F)ccc1-c1c[nH]c(-c2ccc(C(=O)O)cc2)n1.Cl [Example 94]
melting point: > 250 °C
Rate of increase in LPL activity ([1]; amount of addition 10 μM): 9%
Rate of increase in LPL activity ([1]; amount of addition 30 μM): 15%

Compound: COc1cccc(-c2nc(-c3ccc(OCc4ccc(Br)cc4F)cc3OC)c[nH]2)c1.Cl [Example 99]
melting point: 255 to 258 °C
Rate of increase in LPL activity ([1]; amount of addition 10 μM): 14%
Rate of increase in LPL activity ([1]; amount of addition 30 μM): 90%

Compound: COc1cc(OCc2ccc(Br)cc2F)ccc1-c1c[nH]c(-c2ccc(Cl)c(Cl)c2)n1 [Example 102]
melting point: 260 to 262 °C
Rate of increase in LPL activity ([1]; amount of addition 10 μM): 44%
Rate of increase in LPL activity ([1]; amount of addition 30 μM): 88%

Compound: COc1cc(OCc2ccc(Br)cc2F)ccc1-c1c[nH]c(-c2ccc(F)c(Cl)c2)n1 [Example 103]
melting point: 237 to 243 °C
Rate of increase in LPL activity ([1]; amount of addition 10 μM): 30%
Rate of increase in LPL activity ([1]; amount of addition 30 μM): 92%

Compound: COc1cc(OCc2ccccc2)ccc1-c1c[nH]c(-c2ccc(C)cc2)n1 [Example 109]
melting point: 219 to 222 °C
Rate of increase in LPL activity ([1]; amount of addition 10 μM): 12%
Rate of increase in LPL activity ([1]; amount of addition 30 μM): 77%

More lines, now with the values ahead:

melting point: 176 to 180 °C
Rate of increase in LPL activity ([1]; amount of addition 10 μM): 24%
Rate of increase in LPL activity ([1]; amount of addition 30 μM): 32%
Compound: COc1cc(-c2c[nH]c(-c3ccsc3)n2)ccc1OCc1ccc(C#N)cc1 [Example 66]

melting point: 251 to 252 °C
Rate of increase in LPL activity ([1]; amount of addition 10 μM): 52%
Rate of increase in LPL activity ([1]; amount of addition 30 μM): 142%
Compound: COc1cc(-c2c[nH]c(-c3ccsc3)n2)ccc1OCc1ccc(Br)cc1F.Cl [Example 69]

melting point: 197 to 201 °C
Rate of increase in LPL activity ([1]; amount of addition 10 μM): 42%
Rate of increase in LPL activity ([1]; amount of addition 30 μM): 114%
Compound: COc1cc(-c2c[nH]c(-c3ccsc3)n2)ccc1OCc1ccc(Cl)cc1 [Example 71]

melting point: 224 to 227 °C
Rate of increase in LPL activity ([1]; amount of addition 10 μM): 70%
Rate of increase in LPL activity ([1]; amount of addition 30 μM): 123%
Compound: COc1cc(-c2c[nH]c(-c3ccsc3)n2)ccc1OCc1cccc(C#N)c1.Cl [Example 72]

melting point: 236 to 237 °C
Rate of increase in LPL activity ([1]; amount of addition 10 μM): 55%
Rate of increase in LPL activity ([1]; amount of addition 30 μM): 108%
Compound: COc1cc(-c2c[nH]c(-c3ccsc3)n2)ccc1OCc1ccccc1C#N.Cl [Example 73]

melting point: 231 to 232 °C
Rate of increase in LPL activity ([1]; amount of addition 10 μM): 43%
Rate of increase in LPL activity ([1]; amount of addition 30 μM): 89%
Compound: COc1cc(-c2c[nH]c(-c3cccc(C(F)(F)F)c3)n2)ccc1OCc1ccc(C#N)cc1.Cl [Example 75]

melting point: 186 to 187 °C
Rate of increase in LPL activity ([1]; amount of addition 10 μM): 115%
Rate of increase in LPL activity ([1]; amount of addition 30 μM): 263%
Compound: COc1cc(OCc2ccc(C#N)cc2)ccc1-c1c[nH]c(-c2ccc(Cl)cc2)n1 [Example 76]

melting point: 231 to 232 °C
Rate of increase in LPL activity ([1]; amount of addition 10 μM): 54%
Rate of increase in LPL activity ([1]; amount of addition 30 μM): 133%
Compound: COc1cc(-c2c[nH]c(-c3ccc(Cl)cc3)n2)ccc1OCc1ccc(C#N)cc1 [Example 77]

melting point: 231 to 232 °C
Rate of increase in LPL activity ([1]; amount of addition 10 μM): 14%
Rate of increase in LPL activity ([1]; amount of addition 30 μM): 60%
Compound: COc1cc(OCc2ccc(Cl)cc2)ccc1-c1c[nH]c(-c2cccc(F)c2)n1.Cl [Example 78]

melting point: 235 to 237 °C
Rate of increase in LPL activity ([1]; amount of addition 10 μM): 16%
Rate of increase in LPL activity ([1]; amount of addition 30 μM): 64%
Compound: COc1cc(-c2c[nH]c(-c3cccc(F)c3)n2)ccc1OCc1ccc(Cl)cc1.Cl [Example 79]

melting point: 191 to 195 °C
Rate of increase in LPL activity ([1]; amount of addition 10 μM): 21%
Rate of increase in LPL activity ([1]; amount of addition 30 μM): 302%
Compound: COc1cc(OCc2ccc(Br)cc2F)ccc1-c1c[nH]c(-c2ccc(Cl)cc2)n1 [Example 80]

melting point: 181 to 184 °C
Rate of increase in LPL activity ([1]; amount of addition 10 μM): 27%
Rate of increase in LPL activity ([1]; amount of addition 30 μM): 86%
Compound: COc1cc(OCc2ccc(Cl)cc2)ccc1-c1c[nH]c(-c2ccc(Cl)cc2)n1 [Example 82]

melting point: 158 to 161 °C
Rate of increase in LPL activity ([1]; amount of addition 10 μM): 29%
Rate of increase in LPL activity ([1]; amount of addition 30 μM): 100%
Compound: COc1cc(OCc2ccc(Cl)cc2)ccc1-c1c[nH]c(-c2ccccc2C(F)(F)F)n1 [Example 83]

melting point: 231 to 236 °C
Rate of increase in LPL activity ([1]; amount of addition 10 μM): 12%
Rate of increase in LPL activity ([1]; amount of addition 30 μM): 98%
Compound: COc1cc(OCc2ccc(Br)cc2F)ccc1-c1c[nH]c(-c2cccc(Cl)c2)n1.Cl [Example 88]

melting point: 173 to 176 °C
Rate of increase in LPL activity ([1]; amount of addition 10 μM): 27%
Rate of increase in LPL activity ([1]; amount of addition 30 μM): 96%
Compound: COc1cc(OCc2ccc(C#N)cc2)ccc1-c1c[nH]c(-c2ccc(F)c(F)c2)n1 [Example 96]

melting point: 154 to 157 °C
Rate of increase in LPL activity ([1]; amount of addition 10 μM): 27%
Rate of increase in LPL activity ([1]; amount of addition 30 μM): 63%
Compound: COc1cc(OCc2ccc(C#N)cc2)ccc1-c1c[nH]c(-c2cccc(Cl)c2)n1 [Example 97]

melting point: 139 to 142 °C
Rate of increase in LPL activity ([1]; amount of addition 10 μM): 12%
Rate of increase in LPL activity ([1]; amount of addition 30 μM): 43%
Compound: COc1cccc(-c2nc(-c3ccc(OCc4ccc(C#N)cc4)cc3OC)c[nH]2)c1 [Example 100]

melting point: 170 to 173 °C
Rate of increase in LPL activity ([1]; amount of addition 10 μM): 74%
Rate of increase in LPL activity ([1]; amount of addition 30 μM): 365%
Compound: COc1ccc(-c2nc(-c3ccc(OCc4ccc(Cl)cc4)cc3OC)c[nH]2)cc1 [Example 104]

melting point: 145 to 148 °C
Rate of increase in LPL activity ([1]; amount of addition 10 μM): 37%
Rate of increase in LPL activity ([1]; amount of addition 30 μM): 106%
Compound: COc1cc(OCc2ccc(Cl)cc2)ccc1-c1c[nH]c(-c2ccc(Cl)c(Cl)c2)n1 [Example 110]
